In patent US4647571A, “Cysteine delivery composition” (Cornell Research Foundation, priority 1982, dated 1987):
Values joined by “and” are separate entries in the source; they are usually repeats but may differ in a detail not shown here. Identical values can stand only once.

What was measured:
5-oxo-L-prolinase [1] = biological target: T1, 5-oxo-L-prolinase (Rattus norvegicus, UniProt P97608); experiment: Action of 5-oxo-L-prolinase on substrates (products formed); type: biochemical; conditions: for Products Formed: ADP: 5 mM ATP, 30 min at 37° C., pyruvate kinase-lactate dehydrogenase coupled assay; for Reaction on incubation with 5-oxo-L-prolinase: in the presence of ATP
T1 construct: 5-Oxo-L-prolinase was isolated from rat kidney and freed of 5-oxoproline by gel filtration; from tissue; host or cells: rat kidney
T1 sequence (P97608 1-1288): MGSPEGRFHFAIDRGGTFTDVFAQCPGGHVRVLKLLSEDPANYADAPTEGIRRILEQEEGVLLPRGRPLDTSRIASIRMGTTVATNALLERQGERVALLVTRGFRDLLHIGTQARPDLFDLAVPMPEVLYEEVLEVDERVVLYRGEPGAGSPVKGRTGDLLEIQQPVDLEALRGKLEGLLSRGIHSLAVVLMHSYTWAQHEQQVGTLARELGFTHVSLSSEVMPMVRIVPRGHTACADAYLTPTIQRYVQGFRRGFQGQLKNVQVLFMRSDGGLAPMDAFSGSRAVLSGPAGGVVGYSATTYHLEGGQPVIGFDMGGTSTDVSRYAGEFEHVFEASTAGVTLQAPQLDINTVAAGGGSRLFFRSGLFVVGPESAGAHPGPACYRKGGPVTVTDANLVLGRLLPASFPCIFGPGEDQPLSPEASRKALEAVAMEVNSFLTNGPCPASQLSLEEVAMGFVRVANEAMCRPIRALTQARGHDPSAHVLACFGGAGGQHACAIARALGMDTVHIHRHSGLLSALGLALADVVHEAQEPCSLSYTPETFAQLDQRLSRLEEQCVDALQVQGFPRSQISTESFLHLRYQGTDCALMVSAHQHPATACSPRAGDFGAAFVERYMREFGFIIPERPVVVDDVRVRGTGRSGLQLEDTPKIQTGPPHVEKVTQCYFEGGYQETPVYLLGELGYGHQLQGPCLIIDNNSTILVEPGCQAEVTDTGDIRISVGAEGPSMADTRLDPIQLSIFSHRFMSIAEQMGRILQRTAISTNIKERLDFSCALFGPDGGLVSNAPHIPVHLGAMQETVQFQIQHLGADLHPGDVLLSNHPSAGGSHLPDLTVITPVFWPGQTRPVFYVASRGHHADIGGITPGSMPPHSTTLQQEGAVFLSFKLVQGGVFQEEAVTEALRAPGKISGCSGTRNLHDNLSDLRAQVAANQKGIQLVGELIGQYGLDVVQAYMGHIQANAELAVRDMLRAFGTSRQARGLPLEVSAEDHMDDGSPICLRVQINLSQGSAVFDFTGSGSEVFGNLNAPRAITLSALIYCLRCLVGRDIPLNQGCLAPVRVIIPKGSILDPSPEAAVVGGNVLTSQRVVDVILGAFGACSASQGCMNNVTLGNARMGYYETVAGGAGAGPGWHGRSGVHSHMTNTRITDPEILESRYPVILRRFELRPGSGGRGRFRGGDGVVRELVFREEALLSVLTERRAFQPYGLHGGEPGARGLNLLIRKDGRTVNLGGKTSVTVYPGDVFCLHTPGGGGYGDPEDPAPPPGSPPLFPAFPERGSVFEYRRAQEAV
Protocol: (§1) In the experiments the reaction mixtures were made up to contain (final volume 0.5 ml) 100 mM Na Hepes (Na salt of N-2-hydroxyethylpiperizine-N'-2ethanesulfonic acid) buffer (pH 8.0), 150 mM KCl, 8 mM MgCl2, 2 mM phosphoenolpyruvate, 5 mM ATP (adenosine triphosphate), pyruvate kinase, in excess, 20 micrograms of 5-oxoprolinase, and the substrate as indicated.
(§2) The L-and D-isomers of 2-oxothiazolidine-4-carboxylate were synthesized by the method set out in Kaneko et al, Bull, Chem. Soc. (Japan) vol. 37, pp. 242-4 (1964) as modified by the method of Shah et al, Cancer Research vol. 39, pp. 3942-7 (1979). 5-Oxo-L-prolinase was isolated from rat kidney and freed of 5-oxoproline by gel filtration. Other chemicals and materials were obtained commercially.
(§3) After incubation ofr 30 min. at 37° C., the reaction mixtures were treated with 0.1 volume of 1 M HCl, and placed at 0° C. for 5 min.; and an equivalent volume of 1 M 2-amino-2-hydroxylmethyl-1,3,-propanediol was added. Portions were analyzed for amino acids by use of a Durrum Model 500 amino acid analyzer. Cysteine was also determined in some experiments by reaction with 5,5'-dithiobis (2-initrobenzoate) (DTNB).

5-oxoproline metabolism [2] = conditions: previous studies of the inventors; cited from earlier work
5-oxo-L-prolinase [3] = biological target: T1, 5-oxo-L-prolinase; experiment: Inhibition of utilization of 5-oxo-L-proline (glutamate formation) by the purified enzyme; type: biochemical; conditions: 1 mM 5-oxo-L-proline
Protocol: as §1, §2, §3
Energy for the reaction is supplied by the cleavage of ATP. […] The ratio of ADP to cysteine produced increased with time due undoubtedly to the loss of cysteine due to oxidation.

hepatic glutathione = experiment: Hepatic glutathione level after injection; type: in vivo, mice; conditions: for hepatic glutathione level relative to controls: mice fasted overnight, 6.5 mmol/kilo intraperitoneally (D-isomer: equivalent doses)
Protocol: The effect of injecting mice with L-2-oxothiazolidine-4-carboxylate on the level of hepatic gluathione was studies. […] The maximal effect was observed about 4 hours after injection. […] These findings are indicative of in vivo formation of cysteine after administration of L-2- oxothiazolidine-4-carboxylate.
Mice fasted overnight were injected intraperitoneally with NaCl (controls; dashed line) or with Na L-2-oxothiazolidine-4-carboxylate (6.5 mmol/kilo). At intervals, the mice were sacrificed and the excised liver was homogenized in 5 volumes of 1% picric acid. After centrifugation, the protein-free supernatant solutions were analyzed for glutathione by the method of Tietze, Anal. Biochem 27, 502-22(1969). Analyses were carried out in duplicate. In a number of instances, these values were checked by the 2-vinylpyridine procedure of Griffith, Anal. Biochem. 106; 207-12(1980); good agreement between the two methods was observed. In the figure, the points are mean values and the bars indicate the average deviation from the mean. The numbers in parentheses give the number of animals used. The value for the controls was 4.40±0.9 umol/g.

liver glutathione = experiment: Hepatic glutathione in mice depleted of glutathione (acetoaminophenol); type: in vivo
Protocol: Administration of this compound therefore provides a way of getting cysteine into cells. One cannot give cysteine itself without complications since this amino acid is toxic extracellularly. However, when the L-oxothiazolidine compound is injected it enters the cell where it is split giving rise to cysteine within the cell. In a number of clinical situations, for example, after poisoning with excessive pain-killing drugs, e.g., those containing active ingredients known as N-acetyl-para-aminophenol, paracetamol, and acetaminophen, the liver glutathione levels decrease markedly. When cysteine is supplied to liver cells, additional glutathione can be synthesized and thus serve usefully in detoxifying the offending drug. Therefore, L-2-oxothiazolidine-4-carboxylate serves as an intracellular delivery system for cysteine and has potential as a therapeutic agent in situations in which there is depletion of liver glutathione. After acetoaminophenol is given to experimental animals such as mice, the liver glutathione declines rapidly because it is extensively utilized by reaction with the drug. […] For human treatment the L-isomer, preferably in the form of its neutral salt is administered directly into the gastro-intestinal tract or introduced intravenously.

metabolism of glutamate = experiment: In vivo metabolism of L-[14C]glutamate (respiratory 14CO2); conditions: mice, 2.5 mmol/kilo intraperitoneally
Protocol: (§4) The in vitro results showing that L-2-oxothiazolidine-4-carboxylate inhibits utilization of 5-oxoproline were confirmed by in vivo experiments. In the latter, animals were injected with 5-oxo-L-[^14 C] proline and the respiratory [^14 CO2 ] produced was collected and measured for several hours. […] However, L-2- oxothiazolidine-4-carboxylate is a much more efficient inhibitor.
(§5) FIG. 3depicts the inhibition of 5-oxoproline metabolism by L-2- oxothiazolidine-4-carboxylate. Mice fasted overnight were injected intraperitoneally with NaCl (Curve 1; open symbols; controls) or with Na L-2-oxothiazolidine-4-carboxylate (2.5 mmol/kilo) (Curve 2; closed symbols). After 10 min., the mice were injected subcutaneously with 5-oxo-L-[^14 C] proline (A) or with L-[^14 C] glutamate (B) (0.02 mmol; 1.1×10^6 cpm). The mice were then placed in metabolic chambers and the respiratory CO2 was collected in ethanolamine/methanol, 1:4 (vol/vol). In A, each curve represents the results on 3 animals; the points are mean values and the bars represent standard deviations from the mean. In B, each curve represents the average of closely-agreeing results obtained from 2 animals.

5-oxoproline metabolism [4] = experiment: In vivo inhibition of 5-oxoproline metabolism (respiratory 14CO2 after 5-oxo-L-[14C]proline); parameters: species or system mice
Protocol: as §4, §5

tissue cysteine = experiment: Tissue/liver cysteine after administration; type: in vivo, mice

O=C1CC[C@@H](C(=O)O)N1 [5-Oxo-L-proline, 5-oxo-L-proline]
calculated Vmax value (5-oxo-L-prolinase [1]; compared with the L-isomer): higher than that found for the L-isomer | Products Formed: ADP (5-oxo-L-prolinase [1]; substrate 2 mM): 924 nmol | Products Formed: Amino Acid (as glutamate) (5-oxo-L-prolinase [1]; substrate 2 mM, as glutamate): 916 nmol

O=C1NC[C@@H](C(=O)O)N1 [L-2-imidazolidone-4-carboxylate]
in vivo metabolism of 5-oxoproline (5-oxoproline metabolism [2]): markedly inhibits | Products Formed: ADP (5-oxo-L-prolinase [1]; substrate 2 mM): 930 nmol | Products Formed: Amino Acid (5-oxo-L-prolinase [1]; substrate 2 mM, footnote: less than 5 nmol): 0 nmol

O=C1N[C@@H](C(=O)O)CS1 [D-2-oxothiazolidine-4-carboxylate]
inhibition of glutamate formation (in words) (5-oxo-L-prolinase [3]; same conditions): did not inhibit glutamate formation | hepatic glutathione level relative to controls (hepatic glutathione): No such stimulation was observed | Reaction on incubation with 5-oxo-L-prolinase (5-oxo-L-prolinase [1]): No reaction was observed | Products Formed: ADP (5-oxo-L-prolinase [1]; substrate 5 mM): 96 nmol | Products Formed: Amino Acid (5-oxo-L-prolinase [1]; substrate 5 mM, after reduction with KBH4 and reaction with iodoacetamide, footnote: less than 20 nmol): 0 nmol

O=C1N[C@H](C(=O)O)CS1 [L-2-oxothiazolidine-4-carboxylate]
inhibition at 1000 µM (5-oxo-L-prolinase [3]; inhibitor 1 mM): 73% | inhibition at 5000 µM (5-oxo-L-prolinase [3]; inhibitor 5 mM): 92% | inhibition at 10000 µM (5-oxo-L-prolinase [3]; inhibitor 10 mM): 97% | liver glutathione after acetoaminophenol (liver glutathione; mice, given even two hours after the drug): an increase in liver glutathione occurs | hepatic glutathione levels in mice depleted of hepatic glutathione (liver glutathione; mouse, in vivo): restoration of normal hepatic glutathione levels | effect on the metabolism of glutamate (metabolism of glutamate): does not have a significant effect | formation of respiratory 14CO2 from 5-oxo-L-[14C]proline (5-oxoproline metabolism [4]; mice, 2.5 mmol/kilo intraperitoneally 10 min before label): marked decrease | in vivo inhibitory activity relative to L-2-imidazolidone-4-carboxylate (5-oxoproline metabolism [4]; on a molar basis): at least four times more active | injected 5-oxo-L-[14C]proline dose excreted in urine (5-oxoproline metabolism [4]; treated animals, none found in the urine of the controls): about 16 % of the injected dose | hepatic glutathione level relative to controls (hepatic glutathione): about twice those of the controls | time of maximal effect on hepatic glutathione after injection (hepatic glutathione; mice, 6.5 mmol/kilo intraperitoneally): about 4 hours | apparent Km value (5-oxo-L-prolinase [1]; compared with the natural substrate): somewhat lower than that found for the natural substrate | Reaction on incubation with 5-oxo-L-prolinase (5-oxo-L-prolinase [1]): rapid formation of ADP and cysteine | Products Formed: ADP (5-oxo-L-prolinase [1]; substrate 2 mM): 478 nmol and 499 nmol | Products Formed: Amino Acid (5-oxo-L-prolinase [1]; substrate 2 mM, after conversion to cystine): 463 nmol | Products Formed: Amino Acid (5-oxo-L-prolinase [1]; substrate 2 mM, determined after reduction with KBH4 and reaction with iodoacetamide): 466 nmol | cysteine content of tissues (tissue cysteine; administration to animals): increase in the cysteine content of tissues, especially the liver | free cysteine in acid extracts of the livers (tissue cysteine; amino acid analysis after dithiothreitol reduction and 2-vinylpyridine derivatization): No free cysteine was detected
